# Measurements from US8435976B2, “4-substituted pyridin-3-yl-carboxamide compounds and methods of use” (F. Hoffmann-La Roche, priority 2009, dated 2013).
# Test system: multiple myeloma cell line MM.1S
# Assay: MM.1S 3 day proliferation assay, single agents and combinations (Cell-Titer Glo)
# Type: cell-based
# Conditions: FIG. 1
# Experimental: The in vitro potency of the combinations of formula I compounds with chemotherapeutic agents was measured by the cell proliferation assay of Example 11 and the results are compiled in Example iii. The CellTiter-Glo® Luminescent Cell Viability Assay (commercially available from Promega Corp., Madison, Wis.) is a homogeneous assay method based on the recombinant expression of Coleoptera luciferase (U.S. Pat. No. 5,583,024; U.S. Pat. No. 5,674,713; U.S. Pat. No. 5,700,670) and determines the number of viable cells in culture based on quantitation of the ATP present, an indicator of metabolically active cells (Crouch et al (1993) J. Immunol. Meth. 160:81-88; U.S. Pat. No. 6,602,677). The CellTiter-Glo® Assay was conducted in 96 or 384 well format, making it amenable to automated high-throughput screening (HTS) (Cree et al (1995) AntiCancer Drugs 6:398-404). The homogeneous assay procedure involves adding the single reagent (CellTiter-Glo® Reagent) directly to cells cultured in serum-supplemented medium. Cell washing, removal of medium and multiple pipetting steps are not required. The system detects as few as 15 cells/well in a 384-well format in 10 minutes after adding reagent and mixing.
# The homogeneous “add-mix-measure” format results in cell lysis and generation of a luminescent signal proportional to the amount of ATP present. […] Viable cells are reflected in relative luminescence units (RLU). […] Data can be recorded by luminometer or CCD camera imaging device. The luminescence output is presented as relative light units (RLU), measured over time.
# The combination index (CI) score is calculated by the Chou and Talalay method (Chou, T. and Talalay, P. (1984) Adv. Enzyme Regul. 22:27-55). […] The strength of synergy is assessed according to Chou and Talalay. […]
# The in vitro cell survival and proliferation assay (Cell-Titer Glo, Promega) measured viable cells over varying inhibitor concentrations (10^−3 to 10 μMolar, Relative Units, wherein a Relative Unit equals 0.3 micromolar for Compound 3, 0.3 micromolar for Formula A, and 0.1 micromolar for Formula B). […]
structure (smiles),measurement,value
"Nc1sc(-c2c(F)cccc2F)nc1C(=O)Nc1cnccc1N1CCC[C@H](N)C1 [Example 3, (S)-5-amino-N-(4-(3-aminopiperidin-1-yl)pyridin-3-yl)-2-(2,6-difluorophenyl)thiazole-4-carboxamide]","lowest level reached by dose-response curve, of control value",does not fully reach 0% of the control value
